Broadly, the IC50 is the concentration that inhibits the measured activity by half. As usually defined, the EC50 is the concentration at which the effect is half-maximal.

≈ marks a conversion by molar mass, not a printed value.

We go through four molecules from patent publication US20100273740A1 (priority 2004, published 2010).

Data set [1] can be described thus: Cell viability of uninfected human foreskin fibroblast drug control wells. Format: cell-based. The conditions noted are these: uninfected human foreskin fibroblast cells; read-out: Cytotoxic Conc. (IC50) Cell Growth.
For data set [2], the system named is Urbani strain of SARS CoV. Description: organism not typed. Format: cell-based. The conditions noted are these: Vero, read-out: Effective Conc. (EC50) Against SARS CoV.
The subject of another data set is Vero cells. Description: cells. The following applies: Chlorocebus sabaeus, read-out: Inhibitory Conc. (IC50) Cell Growth. Format: cell-based.
Another data set has as its system SARS. The conditions noted are these: cited from earlier work.
For data set [3] the following is noted: cited from earlier work.
A further data set concerns SARS-CoV. The following applies: cited from earlier work.

`CCCCCCCCCCOC(CNC(=O)CCCCCCCCC)COP(=O)([O-])OCC[N+](C)(C)C` (stereo not shown) [NHCOC9H19 OC9H18CH3 PC, 3-decanamido-2-decyloxypropyl-1-phosphocholine]: the IC50 in data set [1] came to 75 µg/mL (≈ 136 µM).

As for `CCCCCCCCCCCC(=O)NCC(COP(=O)([O-])OCC[N+](C)(C)C)OCCCC` (stereo not shown) [NHCOC11H23 OC3H6CH3 PC, 3-dodecanamido-2-butyloxypropyl-1-phosphocholine], the EC50 in data set [2] was 3 µg/mL (≈ 6.06 µM). Further, the IC50 in the data set with Vero cells worked out at 40 µg/mL (≈ 80.9 µM). As for `NC(=O)c1ncn([C@@H]2O[C@H](CO)[C@@H](O)[C@H]2O)n1` [Ribavirin, 1-β-D-ribofuranosyl-1-1,2,4-triazole-3-carboxamide], in the data set on SARS, the “Benefit in SARS patients” value is on record as “has not been observed to be of benefit”. The “Patients with serum amino transferase levels reduced to normal” value in data set [3] is reported as 40%. Further, in data set [3] (patients), the “Effect on viral serum levels” value is on record as “does not lower viral serum levels”. As for interferon beta, in the data set with SARS-CoV, the “Activity in vitro against SARS-CoV” value is “effective in vitro against SARS-CoV”.
